Literature values as cited in US20020193313A1, “Method of increasing the efficacy of chemotherapy in the treatment of tumors” (priority 2001, published 2002).

Key:
[1] = test system: locally advanced breast cancer; conditions: Tamoxifen to induce cell phase arrest, then estrogen to stimulate growth, 43% without synchronization
various types of cancer = conditions: in vitro
[2] = test system: advanced stages of different types of cancer; conditions: topotecan for S phase synchronization followed by doxorubicin

Molecule: CC/C(=C(\c1ccccc1)c1ccc(OCCN(C)C)cc1)c1ccccc1 [Tamoxifen]
- patients whose tumors showed favorable response to phase specific chemotherapy [1]: approximately 82%

Molecule: CC/C=C\C/C=C\C/C=C\CCCCCCCC(=O)O [alpha linoleic acid]
- effect on tumor growth (tumor growth): stimulate tumor growth

Molecule: C[C@@]1(CO)[C@H](O)CC[C@@]2(C)[C@H]1CC[C@H]1C[C@@H]3C[C@@]12CC[C@]3(O)CO [aphidicoline]
- phase of cell cycle arrest (in vitro T-cell lymphoma): arrest late in the G1 phase

Molecule: NC(=O)NO [hydrea]
- phase of cell cycle arrest (in vitro T-cell lymphoma): arrest in the S phase

Molecule: NC(Cn1ccc(=O)c(O)c1)C(=O)O (stereo not shown) [mimosine]
- phase of cell cycle arrest (in vitro T-cell lymphoma): arrest in the G1 phase

Molecule: COC(=O)Nc1nc2ccc(C(=O)c3cccs3)cc2[nH]1 [nocodazole]
- phase of cell cycle arrest (in vitro T-cell lymphoma): arrest in the M-phase

Molecule: Cc1c(N)nc([C@H](CC(N)=O)NC[C@H](N)C(N)=O)nc1C(=O)N[C@H](C(=O)N[C@H](C)[C@@H](O)[C@H](C)C(=O)N[C@H](C(=O)NCCc1nc(-c2nc(C(=O)NCCCN[C@@H](C)c3ccccc3)cs2)cs1)[C@@H](C)O)[C@@H](O[C@@H]1O[C@@H](CO)[C@@H](O)[C@H](O)[C@@H]1O[C@H]1O[C@H](CO)[C@@H](O)[C@H](OC(N)=O)[C@@H]1O)c1c[nH]cn1 [peplomycin]
- cell cycle arrest (various types of cancer): arrest the cell cycle

Molecule: C=C[C@H]1C[N@@]2CC[C@H]1C[C@@H]2[C@@H](O)c1ccnc2ccc(OC)cc12 [quinidine]
- phase of cell cycle arrest (in vitro breast cancer): arrest of in vitro breast cancer in the G1 phase

Molecule: CC[C@@]1(O)C(=O)OCc2c1cc1n(c2=O)Cc2cc3c(CN(C)C)c(O)ccc3nc2-1 [topotecan]
- hematologic toxicity [2]: increased hematologic toxicity

Molecule: epidermal growth factor
- phase of cell cycle arrest (in vitro breast cancer): arrest of in vitro breast cancer in the G1 phase
